{"source": "paper PMC5458078", "about": "“Global mapping of CARM1 substrates defines enzyme specificity and substrate recognition” (Nature Communications, 2017)", "tested_on": "6xHis-tagged CARM1 EVH1 domain (CARM1 28-140)", "assay": "FP assay with fluorescein-labelled BAF155 peptide and 6xHis-CARM1 28-140", "assay_type": "binding", "conditions": "fluorescein-labelled BAF155 peptide 5 nM; protein titrated; 50 mM HEPES pH 7.5, 150 mM NaCl, 0.005% NP-40, 0.5 mM EDTA; 2 h, room temperature; triplicates; ex 485/20 nm, em 528/20 nm", "description": "The DNA fragment encoding CARM1 residues 28–140 was cloned into pET21a expression vector (Novagen, Madison, WI). DNA construct was transformed into BL21(DE3)pLysS E. coli expression strain. Luria–Bertani media (1–2L) was seeded with 10 ml of overnight starter culture and grown at 37 °C until OD600 nm reached 0.6. Protein expression was then induced with the addition of 0.2 mM isopropyl β-D-1-thiogalactopranoside for 4 h at ambient temperature. Bacterial pellets were then lysed by sonication on ice in lysis buffer (50 mM Tris, pH 7.5, 150 mM NaCl, 0.05% NP-40, supplemented with 1 × protease inhibitor cocktail before use) with 70% amplitude, 30 s on, 30 s off, 10 cycles. […] Protein concentration was then determined using Bradford assay and protein purity was assessed by SDS–PAGE and Coomassie Blue staining.\nFluorescein-labelled BAF155 peptide (constant final concentration at 5 nM) was mixed with titrations of purified recombinant proteins or BSA control in binding buffer (50 mM HEPES, pH 7.5, 150 mM NaCl, 0.005% NP-40, 0.5 mM EDTA) and incubated in dark at room temperature for 2 h. […] Polarization measurements were then corrected for background contributions to the measured intensity by subtracting the parallel and perpendicular intensity readings, from the blank buffer-only wells, from the intensity readings for each data point. […]", "data": [{"substance": "bovine serum albumin (BSA): bovine serum albumin control", "values": [{"measurement": "Fluorescence polarization change", "value": "no change in signal"}]}]}
